Source: patent publication EP1826201A1, “Substituted phenylpiperidine derivatives as melanocortin-4 receptor modulators” (Santhera Pharmaceuticals (Schweiz) AG, priority 2006, dated 2007)

Columns and labels:
hMC-4R [1] = biological target: T1, hMC-4R (Homo sapiens, UniProt P32245); test: Membrane binding assay (fluorescence polarization, competition with fluorescence labeled NDP-alpha-MSH); details: HEK293 cell membrane preparations expressing human melanocortin receptors; 5 h at room temperature
T1 construct: expressed in transfected cells; host or cells: HEK293

hMC-4R [2] = biological target: T1, hMC-4R; test: Functional assay (membrane based cAMP fluorescence polarization assay, agonistic activity); assay type: biochemical; details: for Emax / % activation functional assay: cAMP produced compared to stimulation with NDP-alpha-MSH; for Emax: read-out: % activation functional assay; for EC50: membrane preparations from HEK293 cells expressing the human melanocortin receptors, cAMP production
Method: Agonistic activity of human melanocortin receptors is determined in a homogeneous membrane based assay.
Membrane preparations from HEK293 cells expressing the human melanocortin receptors are added. After a short preincubation period, an appropriate amount of ATP, GTP and the cAMP antibody is added and the plate is further incubated before the fluorescence labeled cAMP conjugate is dispensed. The plate is incubated for 2 h at 4°C before it is read on a fluorescence polarization microplate reader. The amount of cAMP produced as a response to a test compound is compared to the production of cAMP resulting from stimulation with NDP-alpha-MSH.

T1 sequence (P32245 whole entry): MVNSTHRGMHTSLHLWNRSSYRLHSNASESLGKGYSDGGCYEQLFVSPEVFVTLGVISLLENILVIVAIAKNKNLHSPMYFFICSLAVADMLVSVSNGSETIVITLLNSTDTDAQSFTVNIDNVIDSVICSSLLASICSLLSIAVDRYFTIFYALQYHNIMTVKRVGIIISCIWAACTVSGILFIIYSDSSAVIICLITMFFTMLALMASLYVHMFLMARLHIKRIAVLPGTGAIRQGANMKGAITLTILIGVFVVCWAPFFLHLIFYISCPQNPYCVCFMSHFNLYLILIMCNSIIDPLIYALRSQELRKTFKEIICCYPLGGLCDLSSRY

Row | IC50 (hMC-4R [1]) | Emax (hMC-4R [2]) | EC50 (hMC-4R [2]) | % activation functional assay (hMC-4R [2]) | Compound
1 | 0.31 µM | 75% | 0.17 µM |  | NC(Cc1ccc(Cl)cc1)C(=O)N1CCC(c2cc(F)c(F)cc2OCCN2CCCC2)CC1 (centres unmarked) [Example 111]
2 | 0.26 µM | 90% | 0.57 µM |  | NC(Cc1ccc(Cl)cc1)C(=O)N1CCC(c2cc(F)ccc2OCCN2CCCC2)CC1 (centres unmarked) [Example 105]
3 | 0.15 µM | 87% | 0.23 µM |  | NC(Cc1ccc(Cl)cc1)C(=O)N1CCC(c2cc(Cl)ccc2OCCN2CCCC2)CC1 (centres unmarked) [Example 106]
4 | 0.13 µM |  |  | no activation | NC(Cc1ccc(Cl)cc1Cl)C(=O)N1CCC(c2ccccc2OCCN2CCCC2)CC1 (centres unmarked) [Example 1]
5 | 0.19 µM | 73% | 0.28 µM |  | NC(Cc1ccc(Cl)cc1)C(=O)N1CCC(c2ccc(Cl)cc2OCCCN2CCCCC2)CC1 (centres unmarked) [Example 110]
6 | 0.057 µM | 29% |  |  | NC(Cc1ccc(Cl)cc1Cl)C(=O)N1CCC(c2cc(F)c(F)cc2OCCN2CCCC2)CC1 (centres unmarked) [Example 7]
7 | 0.064 µM | 22% |  |  | NC(Cc1ccc(Cl)cc1Cl)C(=O)N1CCC(c2ccc(F)cc2OCCN2CCCC2)CC1 (centres unmarked) [Example 2]
8 | 0.028 µM |  |  | no activation | NC(Cc1ccc(Cl)cc1Cl)C(=O)N1CCC(c2ccc(Cl)cc2OCCN2CCCC2)CC1 (centres unmarked) [Example 3]
9 | 0.29 µM | 89% | 0.64 µM |  | NC(Cc1ccc(Cl)cc1)C(=O)N1CCC(c2ccc(F)cc2CCCN2CCCC2)CC1 (centres unmarked) [Example 114]
10 | 0.47 µM | 78% | 1.6 µM |  | NC(Cc1ccc(Cl)cc1)C(=O)N1CCC(c2ccccc2OCCN2CCCC2)CC1 (centres unmarked) [Example 101]
11 | 0.26 µM | 73% | 0.11 µM |  | NC(Cc1ccc(Cl)cc1)C(=O)N1CCC(c2cc(F)c(F)cc2OCCN2CCCCC2)CC1 (centres unmarked) [Example 112]
12 | 0.79 µM | 78% | 1.1 µM |  | NC(Cc1ccc(Cl)cc1)C(=O)N1CCC(c2ccccc2CCCN2CCCC2)CC1 (centres unmarked) [Example 113]
